Laboratory results as given in the kinase profiling compilation of Christmann-Franck et al. (2016).

Columns and labels:
Test in all cases: KINOMEscan competition binding
Conditions in all cases: compound 10.0 µM
ABL1 (human) = ABL1 (human) (UniProt P00519)
PAK7 (human) = PAK7 (human) (UniProt Q9P286)
MYLK2 (human) = MYLK2 (human) (UniProt Q9H1R3)
PIK3CD (human) = PIK3CD (human) (UniProt O00329)
MAP3K4 (human) = MAP3K4 (human) (UniProt Q9Y6R4)
STK32B (human) = STK32B (human) (UniProt Q9NY57)
MAP4K4 (human) = MAP4K4 (human) (UniProt O95819)
CSNK1A1L (human) = CSNK1A1L (human) (UniProt Q8N752)
PRKD1 (human) = PRKD1 (human) (UniProt Q15139)
MARK3 (human) = MARK3 (human) (UniProt P27448)
MAP3K3 (human) = MAP3K3 (human) (UniProt Q99759)
LYN (human) = LYN (human) (UniProt P07948)
STK16 (human) = STK16 (human) (UniProt O75716)
ULK1 (human) = ULK1 (human) (UniProt O75385)
CSNK1G3 (human) = CSNK1G3 (human) (UniProt Q9Y6M4)
MAPK6 (human) = MAPK6 (human) (UniProt Q16659)
MST1R (human) = MST1R (human) (UniProt Q04912)
FLT3 (human) = FLT3 (human) (UniProt P36888)
RIOK2 (human) = RIOK2 (human) (UniProt Q9BVS4)
MAPK7 (human) = MAPK7 (human) (UniProt Q13164)
[1] = target: JAK1 JH1 catalytic (human) (UniProt P23458)
PKN1 (human) = PKN1 (human) (UniProt Q16512)
NLK (human) = NLK (human) (UniProt Q9UBE8)
RPS6KA4 KD2 (human) = RPS6KA4 KD2 (human) (UniProt O75676)
FGFR1 (human) = FGFR1 (human) (UniProt P11362)
MAP4K1 (human) = MAP4K1 (human) (UniProt Q92918)
MERTK (human) = MERTK (human) (UniProt Q12866)
TLK1 (human) = TLK1 (human) (UniProt Q9UKI8)
PIK3CB (human) = PIK3CB (human) (UniProt P42338)
[2] = target: TYK2 JH2 pseudokinase (human) (UniProt P29597)
CSNK2A1 (human) = CSNK2A1 (human) (UniProt P68400)
EPHA5 (human) = EPHA5 (human) (UniProt P54756)

MAP3K3 (human), sequence (Q99759 whole entry, looked up): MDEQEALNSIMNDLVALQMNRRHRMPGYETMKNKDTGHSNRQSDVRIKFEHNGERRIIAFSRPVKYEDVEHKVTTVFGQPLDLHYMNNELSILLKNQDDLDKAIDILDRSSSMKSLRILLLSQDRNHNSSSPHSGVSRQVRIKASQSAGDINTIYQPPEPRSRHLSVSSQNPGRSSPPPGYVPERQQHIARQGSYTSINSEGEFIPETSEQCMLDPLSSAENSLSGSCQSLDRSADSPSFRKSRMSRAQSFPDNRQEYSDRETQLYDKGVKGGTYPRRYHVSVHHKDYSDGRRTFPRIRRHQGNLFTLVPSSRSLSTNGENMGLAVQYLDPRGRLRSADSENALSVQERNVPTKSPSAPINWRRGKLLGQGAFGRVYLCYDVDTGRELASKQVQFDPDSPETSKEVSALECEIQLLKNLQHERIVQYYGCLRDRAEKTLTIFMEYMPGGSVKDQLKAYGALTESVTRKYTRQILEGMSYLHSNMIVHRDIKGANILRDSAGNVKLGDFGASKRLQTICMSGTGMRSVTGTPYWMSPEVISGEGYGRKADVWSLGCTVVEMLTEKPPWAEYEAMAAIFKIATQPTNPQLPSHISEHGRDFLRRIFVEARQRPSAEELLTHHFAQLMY
TLK1 (human), sequence (Q9UKI8 whole entry, looked up): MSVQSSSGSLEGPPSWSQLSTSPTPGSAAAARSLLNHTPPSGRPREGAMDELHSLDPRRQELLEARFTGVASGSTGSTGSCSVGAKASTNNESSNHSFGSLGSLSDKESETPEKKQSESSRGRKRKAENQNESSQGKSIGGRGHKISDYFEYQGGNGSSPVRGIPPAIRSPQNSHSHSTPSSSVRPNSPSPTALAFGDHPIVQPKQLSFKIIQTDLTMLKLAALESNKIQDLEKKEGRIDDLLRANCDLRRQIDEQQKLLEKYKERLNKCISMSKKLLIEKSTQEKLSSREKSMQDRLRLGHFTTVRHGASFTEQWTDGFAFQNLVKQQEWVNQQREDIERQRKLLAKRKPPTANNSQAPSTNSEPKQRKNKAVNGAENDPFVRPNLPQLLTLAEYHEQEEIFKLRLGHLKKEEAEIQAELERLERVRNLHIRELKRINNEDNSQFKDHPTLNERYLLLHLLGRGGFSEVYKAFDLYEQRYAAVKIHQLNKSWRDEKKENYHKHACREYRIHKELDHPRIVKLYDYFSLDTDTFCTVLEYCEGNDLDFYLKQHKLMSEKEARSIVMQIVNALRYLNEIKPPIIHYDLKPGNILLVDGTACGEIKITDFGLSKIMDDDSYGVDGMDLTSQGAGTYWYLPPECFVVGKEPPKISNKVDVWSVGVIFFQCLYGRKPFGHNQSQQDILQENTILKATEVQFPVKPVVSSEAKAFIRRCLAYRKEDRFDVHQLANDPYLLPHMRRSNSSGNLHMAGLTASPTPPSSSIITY
PIK3CB (human), sequence (P42338 whole entry, looked up): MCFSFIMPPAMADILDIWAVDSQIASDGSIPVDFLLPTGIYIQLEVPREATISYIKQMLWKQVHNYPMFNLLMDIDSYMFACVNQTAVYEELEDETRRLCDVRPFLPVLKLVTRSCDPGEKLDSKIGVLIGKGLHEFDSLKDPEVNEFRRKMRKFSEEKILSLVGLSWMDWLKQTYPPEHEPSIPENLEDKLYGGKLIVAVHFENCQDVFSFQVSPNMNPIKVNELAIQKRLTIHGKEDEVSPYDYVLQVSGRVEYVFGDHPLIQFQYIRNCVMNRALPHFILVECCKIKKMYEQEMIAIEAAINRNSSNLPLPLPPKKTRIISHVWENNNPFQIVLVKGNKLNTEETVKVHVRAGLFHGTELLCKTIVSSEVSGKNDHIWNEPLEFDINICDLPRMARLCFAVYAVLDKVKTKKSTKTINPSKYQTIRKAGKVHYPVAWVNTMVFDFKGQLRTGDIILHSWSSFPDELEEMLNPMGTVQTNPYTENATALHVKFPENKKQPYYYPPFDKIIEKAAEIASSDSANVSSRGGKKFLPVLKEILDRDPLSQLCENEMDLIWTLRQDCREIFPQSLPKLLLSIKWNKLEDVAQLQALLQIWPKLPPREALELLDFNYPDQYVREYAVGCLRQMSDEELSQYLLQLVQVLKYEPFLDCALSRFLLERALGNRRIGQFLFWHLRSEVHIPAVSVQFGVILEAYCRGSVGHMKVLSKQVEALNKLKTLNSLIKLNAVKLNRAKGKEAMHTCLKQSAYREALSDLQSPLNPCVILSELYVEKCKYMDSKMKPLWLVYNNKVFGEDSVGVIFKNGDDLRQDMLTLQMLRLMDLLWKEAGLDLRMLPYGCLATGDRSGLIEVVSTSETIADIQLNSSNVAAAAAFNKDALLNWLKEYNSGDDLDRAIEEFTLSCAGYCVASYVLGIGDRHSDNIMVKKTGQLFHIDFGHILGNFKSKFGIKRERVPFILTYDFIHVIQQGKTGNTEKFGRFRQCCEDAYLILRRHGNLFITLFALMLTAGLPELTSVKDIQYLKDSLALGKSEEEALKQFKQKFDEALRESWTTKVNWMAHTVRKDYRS
JAK1 JH1 catalytic (human), sequence (P23458 whole entry, looked up): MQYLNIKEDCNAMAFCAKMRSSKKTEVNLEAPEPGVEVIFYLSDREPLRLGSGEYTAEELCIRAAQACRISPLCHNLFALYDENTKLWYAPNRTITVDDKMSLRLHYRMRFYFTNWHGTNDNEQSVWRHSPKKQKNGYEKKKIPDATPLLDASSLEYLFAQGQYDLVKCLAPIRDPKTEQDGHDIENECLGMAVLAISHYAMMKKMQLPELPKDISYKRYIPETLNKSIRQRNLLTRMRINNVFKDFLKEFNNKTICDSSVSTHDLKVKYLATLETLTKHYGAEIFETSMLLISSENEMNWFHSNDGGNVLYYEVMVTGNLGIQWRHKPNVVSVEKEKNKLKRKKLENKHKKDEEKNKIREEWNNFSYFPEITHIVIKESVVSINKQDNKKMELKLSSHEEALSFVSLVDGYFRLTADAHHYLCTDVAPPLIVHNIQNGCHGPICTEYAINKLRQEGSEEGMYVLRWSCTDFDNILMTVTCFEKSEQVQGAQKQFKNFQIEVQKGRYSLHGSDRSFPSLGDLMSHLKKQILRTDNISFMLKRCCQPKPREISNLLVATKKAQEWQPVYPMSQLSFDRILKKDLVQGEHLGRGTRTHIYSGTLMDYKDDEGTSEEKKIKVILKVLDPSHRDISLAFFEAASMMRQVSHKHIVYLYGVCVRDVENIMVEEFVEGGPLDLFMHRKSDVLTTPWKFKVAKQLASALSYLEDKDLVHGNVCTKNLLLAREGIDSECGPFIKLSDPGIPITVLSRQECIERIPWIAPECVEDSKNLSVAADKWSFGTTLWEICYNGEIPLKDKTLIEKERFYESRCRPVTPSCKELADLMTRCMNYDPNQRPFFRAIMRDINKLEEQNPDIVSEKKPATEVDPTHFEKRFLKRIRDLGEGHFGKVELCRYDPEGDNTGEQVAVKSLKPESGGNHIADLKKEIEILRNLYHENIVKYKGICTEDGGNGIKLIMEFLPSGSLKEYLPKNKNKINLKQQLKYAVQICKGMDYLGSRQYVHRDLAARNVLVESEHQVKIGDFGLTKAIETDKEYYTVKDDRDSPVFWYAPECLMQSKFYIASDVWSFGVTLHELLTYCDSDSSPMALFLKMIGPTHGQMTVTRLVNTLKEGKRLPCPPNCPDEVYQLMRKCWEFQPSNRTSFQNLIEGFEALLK
MST1R (human), sequence (Q04912 whole entry, looked up): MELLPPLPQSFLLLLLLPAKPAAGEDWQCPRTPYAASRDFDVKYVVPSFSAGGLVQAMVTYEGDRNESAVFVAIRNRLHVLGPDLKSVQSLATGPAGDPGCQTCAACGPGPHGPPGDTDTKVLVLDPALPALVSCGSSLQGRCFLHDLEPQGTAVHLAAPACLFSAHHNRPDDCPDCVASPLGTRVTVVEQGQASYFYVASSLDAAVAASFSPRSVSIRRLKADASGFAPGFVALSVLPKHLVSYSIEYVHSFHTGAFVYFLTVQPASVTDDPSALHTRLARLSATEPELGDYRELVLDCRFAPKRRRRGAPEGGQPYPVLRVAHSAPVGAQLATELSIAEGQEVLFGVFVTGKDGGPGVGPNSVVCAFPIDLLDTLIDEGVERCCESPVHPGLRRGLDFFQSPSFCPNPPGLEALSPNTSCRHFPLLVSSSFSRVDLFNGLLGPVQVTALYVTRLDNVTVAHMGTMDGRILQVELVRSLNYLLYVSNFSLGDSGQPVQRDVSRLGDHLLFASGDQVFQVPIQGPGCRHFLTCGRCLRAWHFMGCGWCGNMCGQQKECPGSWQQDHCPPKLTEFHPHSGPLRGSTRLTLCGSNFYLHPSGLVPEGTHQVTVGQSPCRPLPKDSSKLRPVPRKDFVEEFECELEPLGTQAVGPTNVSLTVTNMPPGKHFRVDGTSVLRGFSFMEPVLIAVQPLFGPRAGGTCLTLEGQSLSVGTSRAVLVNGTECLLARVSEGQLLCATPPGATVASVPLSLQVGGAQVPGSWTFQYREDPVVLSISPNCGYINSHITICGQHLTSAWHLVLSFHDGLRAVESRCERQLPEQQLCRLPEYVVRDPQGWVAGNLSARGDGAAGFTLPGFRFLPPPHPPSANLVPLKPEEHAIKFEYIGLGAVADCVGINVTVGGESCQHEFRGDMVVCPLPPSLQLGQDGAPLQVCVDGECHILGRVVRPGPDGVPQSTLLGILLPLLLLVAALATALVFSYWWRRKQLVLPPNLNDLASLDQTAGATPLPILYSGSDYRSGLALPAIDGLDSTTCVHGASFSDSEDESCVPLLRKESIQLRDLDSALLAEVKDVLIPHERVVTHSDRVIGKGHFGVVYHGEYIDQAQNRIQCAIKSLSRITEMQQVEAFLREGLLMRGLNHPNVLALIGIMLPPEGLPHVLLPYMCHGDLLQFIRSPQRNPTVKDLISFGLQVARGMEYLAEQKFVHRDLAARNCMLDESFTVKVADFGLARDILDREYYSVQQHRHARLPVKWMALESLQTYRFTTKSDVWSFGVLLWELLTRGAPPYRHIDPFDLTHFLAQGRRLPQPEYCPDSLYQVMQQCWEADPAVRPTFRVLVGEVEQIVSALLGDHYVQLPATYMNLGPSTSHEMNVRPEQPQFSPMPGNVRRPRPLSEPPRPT

SMILES	kinase still bound, per cent of control (ABL1 (human)) [%]	kinase still bound, per cent of control (PAK7 (human)) [%]	kinase still bound, per cent of control (MYLK2 (human)) [%]	kinase still bound, per cent of control (PIK3CD (human)) [%]	kinase still bound, per cent of control (MAP3K4 (human)) [%]	kinase still bound, per cent of control (STK32B (human)) [%]	kinase still bound, per cent of control (MAP4K4 (human)) [%]	kinase still bound, per cent of control (CSNK1A1L (human)) [%]	kinase still bound, per cent of control (PRKD1 (human)) [%]	kinase still bound, per cent of control (MARK3 (human)) [%]	kinase still bound, per cent of control (MAP3K3 (human)) [%]	kinase still bound, per cent of control (LYN (human)) [%]	kinase still bound, per cent of control (STK16 (human)) [%]	kinase still bound, per cent of control (ULK1 (human)) [%]	kinase still bound, per cent of control (CSNK1G3 (human)) [%]	kinase still bound, per cent of control (MAPK6 (human)) [%]	kinase still bound, per cent of control (MST1R (human)) [%]	kinase still bound, per cent of control (FLT3 (human)) [%]	kinase still bound, per cent of control (RIOK2 (human)) [%]	kinase still bound, per cent of control (MAPK7 (human)) [%]	also measured
COc1cc(N2CCC(C(N)=O)CC2)ccc1Nc1nc(N)c(Cl)c(Nc2ccccc2S(=O)(=O)C(C)C)n1	100	100	100	100	100	3.7	100	21	100	100	100	100	100	100	100	100	100	100	100	100	kinase still bound, per cent of control [1]: 100%; kinase still bound, per cent of control (PKN1 (human)): 100%; kinase still bound, per cent of control (NLK (human)): 100%; kinase still bound, per cent of control (RPS6KA4 KD2 (human)): 100%; kinase still bound, per cent of control (FGFR1 (human)): 100%; kinase still bound, per cent of control (MAP4K1 (human)): 100%; kinase still bound, per cent of control (MERTK (human)): 32%; kinase still bound, per cent of control (TLK1 (human)): 100%; kinase still bound, per cent of control (PIK3CB (human)): 100%; kinase still bound, per cent of control [2]: 100%; kinase still bound, per cent of control (CSNK2A1 (human)): 100%; kinase still bound, per cent of control (EPHA5 (human)): 100%
COc1cc(C)c(Sc2cnc(NC(=O)c3ccc(CNC(C)C(C)C)cc3)s2)cc1C(=O)N1CCN(C(C)=O)CC1 (centres undefined)	100	100	100	100	12	100	100	100	100	100	100	100	100	25	100	100	100	100	100	100	kinase still bound, per cent of control [1]: 100%; kinase still bound, per cent of control (PKN1 (human)): 100%; kinase still bound, per cent of control (NLK (human)): 100%; kinase still bound, per cent of control (RPS6KA4 KD2 (human)): 100%; kinase still bound, per cent of control (FGFR1 (human)): 100%; kinase still bound, per cent of control (MAP4K1 (human)): 25%; kinase still bound, per cent of control (MERTK (human)): 3.2%; kinase still bound, per cent of control (TLK1 (human)): 100%; kinase still bound, per cent of control (PIK3CB (human)): 100%; kinase still bound, per cent of control [2]: 100%; kinase still bound, per cent of control (CSNK2A1 (human)): 100%; kinase still bound, per cent of control (EPHA5 (human)): 100%
